Reference: PMC7567334 (Environmental Health Perspectives, 2020)
Where “and” joins values, the source holds several entries; their conditions need not be identical. Equal entries are not always repeated. Where two headings read alike, the source gives them in different places.

Columns and labels:
[1] = system: TRα and TRβ; test: GH3.TRE-Luc TR reporter assay, agonist setup; format: cell-based, rat; settings: vs 0.1% DMSO
[2] = system: TRα and TRβ; test: GH3.TRE-Luc TR reporter assay, antagonist setup (0.25 nM T3); format: cell-based, rat
[3] = biological target: T1, firefly luciferase (Photinus pyralis, UniProt P08659); test: Luciferase inhibition assay in GH3.TRE-Luc cell lysates; format: biochemical; settings: 50 μM; cell lysate
T1 construct: Only implied by 'CP' in the vector name, from my own knowledge; expressed in transfected cells; host or cells: GH3.TRE-Luc cells induced with 0.25 nM T3, lysate
T1 sequence (P08659 whole entry): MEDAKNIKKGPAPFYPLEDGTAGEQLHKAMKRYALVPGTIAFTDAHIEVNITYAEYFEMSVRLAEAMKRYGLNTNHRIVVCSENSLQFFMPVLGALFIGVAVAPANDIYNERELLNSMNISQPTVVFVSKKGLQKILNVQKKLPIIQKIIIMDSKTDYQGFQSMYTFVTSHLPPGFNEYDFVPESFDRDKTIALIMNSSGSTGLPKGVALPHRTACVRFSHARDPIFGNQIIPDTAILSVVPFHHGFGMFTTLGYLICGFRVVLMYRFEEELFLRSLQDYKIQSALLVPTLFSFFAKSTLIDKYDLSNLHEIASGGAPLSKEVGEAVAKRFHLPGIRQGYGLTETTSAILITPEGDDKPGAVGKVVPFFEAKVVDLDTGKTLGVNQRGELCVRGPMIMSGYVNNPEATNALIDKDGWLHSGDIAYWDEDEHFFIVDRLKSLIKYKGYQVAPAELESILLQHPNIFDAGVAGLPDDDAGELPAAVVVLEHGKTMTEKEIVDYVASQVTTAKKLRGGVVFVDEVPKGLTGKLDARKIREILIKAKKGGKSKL
Experimental: Serial dilutions for each treatment were prepared in the cell lysate and incubated at room temperature for 30 min.

[4] = system: AR-EcoScreen cells; test: Cell viability (resazurin) in AR-EcoScreen cells; settings: agonist assay
[5] = system: AroB transcription; settings: 1 nM E2 alone; zebrafish embryos; ref Chung et al. 2011; cited from earlier work

Oc1c(Br)cc(Cl)cc1Cc1cc(Cl)cc(Br)c1O [Bromochlorophene, 2,2’-methylenebis(6-bromo-4-chlorophenol)]
baseline TR-mediated transcriptional activity lower than vehicle control (agonist setup) ([1]; 1 μM): > 50% | baseline TR-mediated transcriptional activity lower than vehicle control (agonist setup) ([1]; 10 μM): > 50% | IC50 ([2]; 0.25 nM T3; read-out: TR antagonist IC50): 500 nM and 510 nM | lower TR RTA than spike-in control ([2]; 10 μM; vs 0.1% DMSO with 0.25 nM T3): 92.9% | TR antagonist activity, call ([2]; GH3.TRE-Luc): Antagonist | inhibition of firefly luciferase luminescence signal [3]: 26.1% | highest noncytotoxic concentration [4]: 2.5 µM

CC(C)(c1ccc(O)cc1)c1ccc(O)cc1 [BPA, bisphenol A, reference compound]
IC50 ([2]; read-out: TR antagonist IC50; 0.25 nM T3): 41900 nM

C[C@]12CC[C@@H]3c4ccc(O)cc4CC[C@H]3[C@@H]1CC[C@@H]2O [E2, 17β-estradiol, reference compound]
increase in AroB transcription [5]: 8 fold
